In US9416102B2, “(22E)-2-methylene-22-dehydro-1α,24,25-trihydroxy-19-nor-vitamin D3 analogs” (Wisconsin Alumni Research Foundation, priority 2013, dated 2016):

Experiments:
[1] = target: T1, Full-length recombinant rat receptor (vitamin D receptor, VDR) (Rattus norvegicus, UniProt P13053); experiment: Vitamin D receptor competitive binding; conditions: relative to 1,25(OH)2D3, FIG. 1; for competition for binding to the VDR compared to the native hormone: in words
T1 construct: Full-length recombinant rat receptor was expressed in E. coli; histidine tag (C); made in house; host or cells: E. coli BL21(DE3) Codon Plus RIL
T1 sequence (P13053 1-423): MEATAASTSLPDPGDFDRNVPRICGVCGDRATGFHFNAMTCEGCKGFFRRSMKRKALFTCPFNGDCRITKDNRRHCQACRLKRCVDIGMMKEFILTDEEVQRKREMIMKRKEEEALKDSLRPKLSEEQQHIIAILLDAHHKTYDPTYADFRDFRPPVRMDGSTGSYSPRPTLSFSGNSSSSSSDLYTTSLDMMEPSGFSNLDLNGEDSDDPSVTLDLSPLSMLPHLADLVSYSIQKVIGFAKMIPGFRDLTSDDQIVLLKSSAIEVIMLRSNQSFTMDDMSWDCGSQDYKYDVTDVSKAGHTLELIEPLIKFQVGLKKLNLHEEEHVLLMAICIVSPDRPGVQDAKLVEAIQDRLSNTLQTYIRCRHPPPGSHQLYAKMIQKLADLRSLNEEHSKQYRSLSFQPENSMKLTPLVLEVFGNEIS
From the text: Vitamin D Receptor Binding
Full-length recombinant rat receptor was expressed in E. coli BL21(DE3) Codon Plus RIL cells and purified to homogeneity using two different column chromatography systems. The first system was a nickel affinity resin that utilizes the C-terminal histidine tag on this protein. The protein that was eluted from this resin was further purified using ion exchange chromatography (S-Sepharose Fast Flow). Aliquots of the purified protein were quick frozen in liquid nitrogen and stored at −80° C. until use. For use in binding assays, the protein was diluted in TEDK50 (50 mM Tris, 1.5 mM EDTA, pH 7.4, 5 mM DTT, 150 mM KCl) with 0.1% Chaps detergent. The receptor protein and ligand concentration was optimized such that no more than 20% of the added radiolabeled ligand was bound to the receptor.
Unlabeled ligands were dissolved in ethanol and the concentrations determined using UV spectrophotometry (1,25(OH)2D3: molar extinction coefficient=18,200 and 1max=265 nm; Analogs: molar extinction coefficient=42,000 and 1max=252 nm). Radiolabeled ligand (^3H-1,25(OH)2D3, ˜159 Ci/mmole) was added in ethanol at a final concentration of 1 nM.
Radiolabeled and unlabeled ligands were added to 100 mcl of the diluted protein at a final ethanol concentration of ≦10%, mixed and incubated overnight on ice to reach binding equilibrium. The following day, 100 mcl of hydroxylapatite slurry (50%) was added to each tube and mixed at 10-minute intervals for 30 minutes. The hydroxyapaptite was collected by centrifugation and then washed three times with Tris-EDTA buffer (50 mM Tris, 1.5 mM EDTA, pH 7.4) containing 0.5% Titron X-100. After the final wash, the pellets were transferred to scintillation vials containing 4 ml of Biosafe II scintillation cocktail, mixed and placed in a scintillation counter. Total binding was determined from the tubes containing only radiolabeled ligand.

[2] = system: 24-hydroxylase (24OHase) gene promoter; experiment: In vitro transcription assay (luciferase reporter in ROS 17/2.8 cells); assay type: cell-based; conditions: FIG. 3; for stimulation of gene transcription compared to the native hormone: in words
Experimental: In Vitro Transcription Assay
Transcription activity was measured in ROS 17/2.8 (bone) cells that were stably transfected with a 24-hydroxylase (24OHase) gene promoter upstream of a luciferase reporter gene (Arbour et al., 1998). Cells were given a range of doses. Sixteen hours after dosing the cells were harvested and luciferase activities were measured using a luminometer. RLU=relative luciferase units.

[3] = system: Human promyelocytic leukemia (HL-60) cells; experiment: HL-60 differentiation (nitro blue tetrazolium reduction); assay type: cell-based; conditions: relative to 1,25(OH)2D3; FIG. 2
Experimental: The study drugs were dissolved in ethanol and the concentrations determined using UV spectrophotometry. Serial dilutions were prepared so that a range of drug concentrations could be tested without changing the final concentration of ethanol (≦0.2%) present in the cell cultures.
Human promyelocytic leukemia (HL-60) cells were grown in RPMI-1640 medium containing 10% fetal bovine serum. The cells were incubated at 37° C. in the presence of 5% CO2.
HL-60 cells were plated at 1.2×10^5 cells/ml. Eighteen hours after plating, cells in duplicate were treated with drug. Four days later, the cells were harvested and a nitro blue tetrazolium reduction assay was performed (Collins et al., 1979; J. Exp. Med. 149:969-974). The percentage of differentiated cells was determined by counting a total of 200 cells and recording the number that contained intracellular black-blue formazan deposits. Verification of differentiation to monocytic cells was determined by measuring phagocytic activity (data not shown).

[4] = system: ovariectomized (OVX) Sprague-Dawley female rats; experiment: Ovariectomized rat model, bone strength testing (3-point bending); assay type: in vivo; conditions: 60 ng/kg body weight once daily for 17 weeks, FIG. 6
Experimental: Virgin Sprague-Dawley female rats were either sham-operated or ovariectomized (OVX) at 4 months of age by the vendor (Harlan). Starting at 16 weeks post-surgery, the animals were given vehicle or test analog (WT or 2MD) once daily for 17 weeks. Bone mineral density (BMD) and serum and urinary calcium levels were assessed periodically throughout the study. At termination, femurs were collected for bone strength testing (3-point bending, Numira Biosciences).

Row | competition for binding to the VDR compared to the native hormone [1] | binding to the vitamin D receptor (VDR), times less active than the natural hormone [1] | SMILES | stimulation of gene transcription compared to the native hormone [2] | promoting HL-60 cell differentiation, times more potent than the native hormone [3] | stimulating gene transcription from the 24OHase gene promoter, times more effective than the natural hormone ([2]; relative to 1,25(OH)2D3) | bone strength compared to 2MD at 2.5 ng/kg body weight [4]
1 | one log less than the native hormone | approximately 10 × | C=C1[C@H](O)CC(=C/C=C2\CCC[C@]3(C)[C@@H]([C@H](C)/C=C/[C@H](O)C(C)(C)O)CC[C@@H]23)C[C@H]1O [WT-52, (22E)-(24S)-2-methylene-22-dehydro-1α,24,25-trihydroxy-19-nor-vitamin D3] | approximately the same activity as the native hormone | – | – | –
2 | one log less than the native hormone | approximately 10 × | C=C1[C@H](O)CC(=C/C=C2\CCC[C@]3(C)[C@@H]([C@H](C)/C=C/[C@@H](O)C(C)(C)O)CC[C@@H]23)C[C@H]1O [WT-51, (22E)-(24R)-2-methylene-22-dehydro-1α,24,25-trihydroxy-19-nor-vitamin D3] | nearly one log more potent than the native hormone | approximately 10 × | approximately 10 × | improves bone strength in ovariectomized rats to the same degree as 2MD
